The assay has as its target T1, LHRH rat pituitary receptor (Rattus norvegicus, UniProt P30969).
T1 construct: from tissue; host or cells: rat pituitary
T1 sequence (P30969 1-327): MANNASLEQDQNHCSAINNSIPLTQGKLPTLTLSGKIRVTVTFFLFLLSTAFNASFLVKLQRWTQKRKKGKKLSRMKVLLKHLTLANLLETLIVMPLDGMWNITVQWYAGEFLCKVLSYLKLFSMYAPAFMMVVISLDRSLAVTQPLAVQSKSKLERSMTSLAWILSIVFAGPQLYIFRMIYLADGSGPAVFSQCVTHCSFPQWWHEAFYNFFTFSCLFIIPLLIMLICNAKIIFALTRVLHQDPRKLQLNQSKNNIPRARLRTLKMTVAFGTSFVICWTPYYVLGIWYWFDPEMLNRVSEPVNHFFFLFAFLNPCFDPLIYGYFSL
The assay can be described thus: LHRH rat pituitary receptor binding. On the procedure: Representative compounds of the present invention were evaluated in vitro for potency against for LHRH rat pituitary receptor binding [pK, ]. Methods for the assay procedures are 10 described in […] al. J Med. Chem., 32: 2340-2344 (1989). Values of pK, are the negative logarithms of the equilibrium dissociation constant of the particular antagonist test compound for the receptor binding. […] Leuprolide LHRH agonist, disclosed and claimed in U.S. Pat. No. 4,005, 063, has the structure 5-oxo-[…].

The mark [1] stands for this setting: Table 1: compounds of formula (V), by n and R1.
The mark [2] stands for this setting: Table 2: compounds of formula (VI), by isoquinolinyl moiety R.
The mark [3] stands for this setting: Table 3: compounds of formula (VII), by substituent R'.

Structures can show the parent of a compound that is named as a salt.

As usually defined, the Ki is a dissociation constant, usually derived from enzyme kinetics or from competition with a known ligand. Higher therefore signals a looser hold on the target.

Compound `COc1cc2c(cc1OC)C(CCCCNC1CCC1)N(CCCC(CCCNC(=O)CCc1ccc(F)cc1)(c1ccccc1)c1ccccc1)CC2` (stereo not shown) [Example 28, 7-[N-3-(4-Fluorophenyl)propionyl]-1-[N-(1,2,3,4-tetrahydro-1-(4-N-(cyclobutylamino)butyl)-6,7-dimethoxyisoquinolinyl)1-4.4-diphenylheptanedihydrochloride] displayed a pKI under setting [1] of 9.60.

Under setting [2], `COc1cc2c(cc1Br)CCN(CCCC(CCCNC(=O)CCc1ccc(F)cc1)(c1ccccc1)c1ccccc1)C2C` (stereo not shown) [Example 59, 7-[N-3-(4-Fluorophenyl)propionyl]-1-[N-(1,2,3,4-tetrahydro-1-methyl-6-bromo-7-methoxyisoguinolinyl)]-4,4-diphenylheptane hydrochloride] gave a Ki of 1.91 nM.

With `COc1cc2c(cc1OC)[C@@H](C)N(CCCC(CCCNC(=O)CCc1ccc(F)cc1)(c1ccccc1)c1ccccc1)CC2` [Example 2, (R) 7-[N-3-(4-Fluorophenyl)propionyl]-1-N-(1,2,3,4)-tetrahydro-1-methyl-6,7-dimethoxyisoguinolinyl)1-4,4-diohenylheptane hydrochloride], the pKI under setting [1] turned out to be 8.25.

On to `COc1cc2c(cc1OC)C(CCCCN1C(=O)c3ccccc3C1=O)N(CCCC(CCCNC(=O)CCc1ccc(F)cc1)(c1ccccc1)c1ccccc1)CC2` (stereo not shown) [Example 24, 7-[N-3-(4-Fluorophenyl)propionyl]amino-1-[N-F 1,2,3,4-tetrahydro-1-(4-N-phthalimidobutyl)-6,7-dimethoxyisoquinolinyl)]-4,4-diphenylheptane hydrochloride], for which the Ki under setting [1] was 0.407 nM.

Consider `CC1c2cc(Cl)ccc2CCN1CCCC(CCCNC(=O)CCc1ccc(F)cc1)(c1ccccc1)c1ccccc1` (stereo not shown) [Example 52, 7-[N-3-(4-Fluorophenyl)propionyl]-1-[N-(1,2,3,4-tetrahydro-1-methyl-7-chloro-isoguinolinyl)-4,4-dithenylhepMtane hydrochloride], for which, under setting [2], affinity was put at a Ki of 3.55 nM.

`COc1cc2c(cc1OC)C(CCCCNC(C)C)N(CCCC(CCCNC(=O)CCc1ccc(F)cc1)(c1ccccc1)c1ccccc1)CC2` (stereo not shown) [Example 26, 7-[N-3-(4-Fluorophenyl)propionyl]-1-[N-(1,2,3,4-tetrahydro-1-(4(N-isopropylaminobutyl)-6,7-dimethoxyisoguinolinyl)1-4.4-diohenylheptanedihydrochloride] gave a Ki under setting [1] of 2.75 nM.

Compound `COc1cc2c(cc1OC)C(C1CC1)N(CCCC(CCCNC(=O)CCc1ccc(F)cc1)(c1ccccc1)c1ccccc1)CC2` (stereo not shown) [Example 4, 7-[N-3-(4-Fluorolphenyl)Propionyl]1-[N-(1,2,3,4-tetrahydro-1-cyclopropyl-6.7-dimethoxyisoquinolinyl)]-4,4-diphenylheptane hydrochloride] showed a Ki under setting [1] of 0.135 nM.

On to `CCC1c2cc(OC)c(OC)cc2CCN1CCCC(CCCNC(=O)CCc1ccc(F)cc1)(c1ccccc1)c1ccccc1` (stereo not shown) [Example 5, 7-[N-3-(4-Fluorophenyl)Propionyl]amino-1-[N-(1,2,3,4-tetrahydro-1-ethyl-6.7-dimethoxyisoquinolinyl)]1-4.4-diphenylheptane hydrochloride], for which the Ki under setting [1] is 1.58 nM.

In turn, `COc1ccc2c(c1)CCN(CCCC(CCCNC(=O)CCc1ccc(F)cc1)(c1ccccc1)c1ccccc1)C2C` (stereo not drawn) [Example 50, 7-[N-3-(4-Fluorophenyl)propionyl]amino-1-[-1-(1,2,3,4-tetrahydro-1-methv,l-6-methoxyisoquinolinyl)1-4.4-diphenylheptane hydrochloride] had an inhibition constant Ki under setting [2] of 2.51 nM.

In turn, `COc1ccc(C2c3cc(OC)c(OC)cc3CCN2CCCC(CCCNC(=O)CCc2ccc(F)cc2)(c2ccccc2)c2ccccc2)cc1` (stereo not shown) [Example 14, 7-[N-3-(4-Fluorophenyl)propionyl]amino-1-[N-(1,2,3,4-tetrahydro-1-(4-methoxyphenyl)-6,7-dimethoxyisoguinolinyl)1-4.4-diihenylhentane hydrochloride] showed a pKI under setting [1] of 8.14.

Compound `COc1cc2c(cc1OC)C(CCCCN)N(CCCC(CCCNC(=O)CCc1ccc(F)cc1)(c1ccccc1)c1ccccc1)CC2` (stereo not shown) [Example 25, 7-[N-3-(4-Fluorophenyl)propional]-1-[N-(1,2,3,4-tetrahydro-1-(4-aminobutyl)-6,7-dimethoxyisoquinolinyl)]-4,4-diphenylhentane dihydrochloride] gave a Ki under setting [1] of 0.186 nM.

Under setting [1], `COc1cc2c(cc1OC)C(CCCCNCC(C)C)N(CCCC(CCCNC(=O)CCc1ccc(F)cc1)(c1ccccc1)c1ccccc1)CC2` (stereo not shown) [Example 29, 7-[N-3-(4-Fluorophenyl)propionyl]-1-[N-(1,2,3,4-tetrahydro-1-[4-(N-isobutylamino)butyll-6,7-dimethoxyisoguinolinyl)1-4.4-diphenylheptanedihydrochloride] came in with a pKI of 8.60.

The compound `COc1cc2c(cc1Br)CCN(CCCC(CCCNC(=O)CCc1ccc(F)cc1)(c1ccccc1)c1ccccc1)C2C1CCC1` (stereo not drawn) [Example 64, 7-[N-3-(4-Fluorophenyl)propionyl]amino-1-[N-(1,2,3,4-tetrahydro-1-cyclobutyl-6-bromo-7-methoxyisoquinolinyl)l-4,4-diiphenylheptane hydrochloride] had an inhibition constant (Ki) under setting [2] of 6.03 nM.

On to `COc1cc2c(cc1OC)C(COCc1ccccc1)N(CCCC(CCCNC(=O)CCc1ccc(F)cc1)(c1ccccc1)c1ccccc1)CC2` (stereo not shown) [Example 13, 7-[N-3-(4-Fluorophenyl)propionyl]amino-1-[N-(1,2,3,4-tetrahydro-1-benzyloxymethyl-6,7-dimethoxyisoguinolinyl)1-4.4-diphenylhelptane hydrochloride], for which the Ki under setting [1] is 3.47 nM.

On to `COc1cc2c(cc1OC)C(C)N(CCCC(CCCNC(=O)CCc1ccccc1)(c1ccccc1)c1ccccc1)CC2` (stereo not shown) [Example 72], for which, under setting [3], the Ki is 3.16 nM.

`COc1cc2c(cc1F)CCN(CCCC(CCCNC(=O)CCc1ccc(F)cc1)(c1ccccc1)c1ccccc1)C2C` (stereo not shown) [Example 60, 7-[N-3-(4-Fluorophenyl)propionyl]-1-[N-(1,2,3,4-tetrahydro-1-methyl-6-fluoro-7-methoxyisoguinofinyl)1-4.4-diphenylheptane hydrochloride] gave a Ki under setting [2] of 1.7 nM.

In the case of `COc1cc2c(cc1OC)C(CCCCNC(=O)c1cccnc1)N(CCCC(CCCNC(=O)CCc1ccc(F)cc1)(c1ccccc1)c1ccccc1)CC2` (stereo not shown) [Example 35, 7-[N-3-(4-Fluorophenyl)propionyl]amino-1-[N-(1,2,3,4-tetrahydro-1-(4-N-nicotinylamino)-butyl-6,7-dimethoxyisoguinolinyll-4,4-diphenylheptane hydrochloride], the inhibition constant (Ki) under setting [1] is 2.45 nM.

In the case of `COc1cc2c(cc1OC)C(C)N(CCCC(CCCNC(=O)CCc1ccc(F)c(Cl)c1)(c1ccccc1)c1ccccc1)CC2` (stereo not shown) [Example 76], under setting [3], the inhibition constant Ki was 3.98 nM.

Consider `COc1cc2c(cc1OC)C(CC#N)N(CCCC(CCCNC(=O)CCc1ccc(F)cc1)(c1ccccc1)c1ccccc1)CC2` (stereo not shown) [Example 11, 7-[N-3-(4-Fluorophenyl)propionyl]amino-1-[N-(1,2,3,4-tetrahydro-1-cyanomethyl-6,7-dimethoxyisoguinolinyl)1-4.4-diphenylheptane hydrochloride], for which the pKI under setting [1] was 8.71.

Under setting [2], `COC(=O)c1cc2c(cc1OC)C(C)N(CCCC(CCCNC(=O)CCc1ccc(F)cc1)(c1ccccc1)c1ccccc1)CC2` (stereo not shown) [Example 63, 7-[N-3-(4-Fluorophenyl)propionyl]-1-[N-(1,2,3,4-tetrahydro-1-methyl-6-carbomethoxy-7-methoxyisoguinolinyl)1-4.4-diphenylhentane hydrochloride] gave an inhibition constant Ki of 6.76 nM.

On to `COc1cc2c(cc1OC)C(C)N(CCCC(CCCNC(=O)CCc1ccc(F)cc1)(c1ccccc1)c1ccccc1)CCC2` (stereo not shown) [Example 69, 7-[N-3-(4-Fluorophenyl)propionyl]-1-[N-(2,3,4,5-tetrahydro-1-methyl-7.8-dimethoxy-I H-2-benzazepinyl)1-4.4-diphenylheptane hydrochloride], for which, under setting [2], the Ki is 12.6 nM.

In turn, `CC1c2cc([N+](=O)[O-])ccc2CCN1CCCC(CCCNC(=O)CCc1ccc(F)cc1)(c1ccccc1)c1ccccc1` (stereo not drawn) [Example 54, 7-[N-3-(4-Fluorophenyl)Propionyl]-1-[N-(1,2,3,4-tetrahydro-1-methyl-7-nitro-isoquinolinyl)l-4,4-diphenylheiptane hydrochloride] gave a Ki under setting [2] of 4.37 nM.

With `COc1cc2c(cc1OC)C(CCCCNCCC(C)C)N(CCCC(CCCNC(=O)CCc1ccc(F)cc1)(c1ccccc1)c1ccccc1)CC2` (stereo not shown) [Example 30, 7-[N-3-(4-Fluorophenyl)propionyl]amino-1-[N-(1,2,3,4-tetrahydro-1-(4-N-isopentylamino)butyll-6,7-dimethoxyisoquinolinyl)1-4.4-diphenylheptanedihydrochloride], under setting [1], the pKI came out at 8.00.

On to `COc1cc2c(cc1OC)C(C)(C)N(CCCC(CCCNC(=O)CCc1ccc(F)cc1)(c1ccccc1)c1ccccc1)CC2` [Example 67, 7-[N-3-(4-Fluorophenyl)propionyl]-1-[N-(1,2,3,4-tetrahydro-1.1-dimethyl-6,7-dimethoxyisoguinolinyl)1-4.4-diphenylheptane hydrochloride], for which the affinity under setting [2] corresponds to a Ki of 2.51 nM.

`COc1cc2c(cc1OC)C(c1ccccc1)N(CCCC(CCCNC(=O)CCc1ccc(F)cc1)(c1ccccc1)c1ccccc1)CC2` (stereo not shown) [Example 7, 7-[N-3-(4-Fluorophenyl)propionyl]amino-1-[N-(1,2,3,4-tetrahydro-1-phenyl-6,7-dimethoxyisoquinolinyl)]1-4.4-diphenylheptane hydrochloride] gave a Ki under setting [1] of 45.7 nM.
